# Columns and labels:
# [1] = Clearance in rat hepatocytes; format: in vitro ADME; conditions: hepatic extraction ratio; test compound 0.5 μM, 1×10^6 cells/mL, 37° C.
# Method: Test compounds and 4 control compounds are tested in duplicate per run. Test compound concentration is 0.5 μM and cell concentration is 1×10^6 cells/mL in the incubation. The described method is performed by the liquid handling system Tecan RSP and is based on a 96-well format.
# The liver is collected from a male Spraque-Dawley rat. One liver lobe is cut off and flushed with various buffers to loosen the cells. The cell suspension is washed and centrifuged, and the cell density is adjusted to 1.2×10^6 cells/mL with Krebs-Henseleit buffer, pH 7.4, containing 0.2% bovine serum albumin (BSA). Only cell suspensions with viability above 80% are used.
# The cell suspension is pre-heated (20 min) to 37° C. Test compound is added, and the mixture is incubated for 20 minutes. Incubations are run in duplicate. Samples are withdrawn at predetermined stop times and mixed with methanol containing internal standard (IS) to terminate all enzyme activity and precipitate proteins.
# (§1) The percentage of organic solvent in the incubations is less than 1%. Careful inspections of reagents are performed prior to the start of any experiment to ensure all reagents are in solution.
# (§2) The 96-well plates are centrifuged. Test compound depletion, using a compound specific LC/MS/MS method, is determined.
# Data analysis is performed as described above in the section “Biological assay for analysis of clearance in human liver microsomes”, with the following modifications: Intrinsic clearance (CIint) (mL/min/10^6 cells) is calculated from: […]
# where c is the cell concentration in 10^6 cells/mL.
# The following scaling factors for rat are used for eq. 4:
# a: 120 (cells/liver weight (10^6 cells/g))
# d: 0.25 (body weight (kg))
# Liver blood flow in rats (for eq. 5):
# (§3) Apparent clearance below approximately 25 mL/min/kg rat body weight (corresponding to an extraction ratio of approx. 33%) is considered as low clearance (high metabolic stability). Apparent intrinsic clearance above approximately 165 mL/min/kg rat body weight (corresponding to an extraction ratio of approx. 75%) is considered as high clearance (low metabolic stability).
# [2] = Clearance in human liver microsomes; format: in vitro ADME; conditions: hepatic extraction ratio; test compound 0.5 μM, microsomes 0.5 mg/mL, NADPH 1 mM, 37° C.
# Method: Test compound concentration is 0.5 μM, microsome concentration is 0.5 mg/mL and NADPH concentration is 1 mM in the incubation. The described method is performed by the liquid handling system Tecan RSP and is based on a 96-well format.
# Control incubations with test compound without NADPH and test compound without microsomes are conducted to investigate non-CYP mediated metabolism and stability in phosphate buffer at 37° C., respectively.
# The human liver microsomal suspension in phosphate buffer is mixed with NADPH. The mixture is pre-heated (7 min) to 37° C. Test compound is added, and the mixture is incubated for 30 minutes. Incubations are run in duplicate. Samples are withdrawn at predetermined stop times and mixed with methanol containing internal standard (IS) to terminate all enzyme activity and precipitate proteins. A control without NADPH (to detect problems such as nonspecific protein binding, heat instability or non-CYP mediated metabolism) and a control without microsomes (for assessing compound stability in the absence of any active enzymes) are tested.
# as §1, §2
# The logarithm of the peak area ratios of test compound to internal standard (IS) versus incubation time is plotted in a graph.
# The rate constant (k) (min^−1) of test compound depletion is calculated from the linear part of the curve and the half-time (t1/2) in minutes can be calculated from the rate constant (Eq. 2).
# Intrinsic clearance (CIint) (mL/min/mg protein) is calculated from: […]
# where c is the microsomal protein concentration in mg/mL.
# Conversion to apparent clearance (CIapp) (mL/min/kg) is done by Eq. 4:
# CIapp=CIint×a×b/d (Eq. 4)
# where a, b and d are the scaling factors for normalizing CIint to human body weight.
# a: 45 (microsomal protein/liver weight (mg/g))
# b: 1500 (liver weight (g))
# Hepatic clearance (CIh) (mL/min/kg) based on the well-stirred model is described as followed:
# CIh=(CIapp·Q)/(CIapp+Q) (Eq. 5)
# where Q is the liver blood flow in mL/min/kg (20 in humans).
# Dividing hepatic clearance with liver blood flow, the hepatic extraction ratio (%) can be calculated:
# as §3, with “approximately 10” for “approximately 25”, “mL/min/kg human” for “mL/min/kg rat”, “to” for “to an”, “approximately 60” for “approximately 165”
Clearance (% Eh) in rat hepatocytes [1],Clearance (% Eh) in human liver microsomes [2],Structure (SMILES)
B (B: 33% ≦ Eh ≦ 75%),A (A: Eh < 33%),"COc1cc([C@@H](C)N[C@H]2CC[C@@H](c3ccc(OCC(=O)N4CCNCC4)cc3)C2)ccc1F [Compound 103, 2-[4-[(1R,3S)-3-[[(1R)-1-(4-Fluoro-3-methoxy-phenyl)ethyl]-amino]-cyclopentyl]phenoxy]-1-piperazin-1-yl-ethanone]"
A (A: Eh < 33%),A (A: Eh < 33%),"COc1cc([C@@H](C)N[C@H]2CC[C@@H](c3ccc(OCC(=O)NCCS(N)(=O)=O)cc3)C2)ccc1F [Compound 104, 2-[4-[(1R,3S)-3-[[(1R)-1-(4-Fluoro-3-methoxy-phenyl)ethyl]-amino]-cyclopentyl]phenoxy]-N-(2-sulfamoylethyl)acetamide]"
B (B: 33% ≦ Eh ≦ 75%),A (A: Eh < 33%),"COc1cc([C@@H](C)N[C@H]2CC[C@@H](c3ccc(OCC(=O)NCCNCCO)cc3)C2)ccc1F [Compound 106, 2-[4-[(1R,3S)-3-[[(1R)-1-(4-Fluoro-3-methoxy-phenyl)ethyl]-amino]-cyclopentyl]phenoxy]-N-[2-(2-hydroxyethylamino)ethyl]acetamide]"
B (B: 33% ≦ Eh ≦ 75%),A (A: Eh < 33%),"COc1cc([C@@H](C)N[C@H]2CC[C@@H](c3ccc(OCC(=O)NCCNS(C)(=O)=O)cc3)C2)ccc1F [Compound 108, 2-[4-[(1R,3S)-3-[[(1R)-1-(4-Fluoro-3-methoxy-phenyl)ethyl]-amino]-cyclopentyl]phenoxy]-N-[2-(methanesulfonamido)ethyl]acetamide]"
B (B: 33% ≦ Eh ≦ 75%),A (A: Eh < 33%),"COc1cc([C@@H](C)N[C@H]2CC[C@@H](c3ccc(OCC(=O)N4CCN(C(C)=O)CC4)cc3)C2)ccc1F [Compound 109, 1-(4-Acetylpiperazin-1-yl)-2-[4-[(1R,3S)-3-[[(1R)-1-(4-fluoro-3-methoxy-phenyl)ethyl]amino]cyclopentyl]phenoxy]ethanone]"
B (B: 33% ≦ Eh ≦ 75%),B (B: 33% ≦ Eh ≦ 75%),"COc1cc([C@@H](C)N[C@H]2CC[C@@H](c3ccc(OCC(=O)N4CCN(S(N)(=O)=O)CC4)cc3)C2)ccc1F [Compound 110, 4-[2-[4-[(1R,3S)-3-[[(1R)-1-(4-Fluoro-3-methoxy-phenyl)-ethyl]-amino]cyclopentyl]phenoxy]acetyl]piperazine-1-sulfonamide]"
B (B: 33% ≦ Eh ≦ 75%),A (A: Eh < 33%),"C[C@@H](N[C@H]1CC[C@@H](c2ccc(OCC(=O)NC3CCNCC3)cc2)C1)c1cccc2ccccc12 [Compound 112, 2-[4-[(1R,3S)-3-[[(1R)-1-(1-Naphthyl)ethyl]amino]cyclopentyl]-phenoxy]-N-(4-piperidyl)acetamide]"

# Reference: patent US20130261132A1, “CALCIUM-SENSING RECEPTOR-ACTIVE COMPOUNDS” (LEO PHARMA A/S, priority 2010, published 2013)
